These results are taken from ChEMBL document CHEMBL5620345, “Metal binding pharmacophore click-derived discovery of new broad-spectrum metallo-β-lactamase inhibitors” (Eur J Med Chem, 2023).

A short description of test [1]: Inhibition of recombinant VIM-5 (unknown origin) expressed in Escherichia coli (DE3) cells using FC5 as substrate by microplate reader assay.
The test system of test [2] is Escherichia coli. Kind of test: Antibacterial activity against Escherichia coli BAA2452 expressing blaNDM-1 clinical isolates assessed as fold potentiation incubated for 16 to 18 hrs by broth microdilution method. It is filed as functional. To be noted: time 16-18 hrs.
Test [3] is described as follows: Inhibition of recombinant NDM1 (unknown origin) expressed in Escherichia coli (DE3) cells using FC5 as substrate by microplate reader assay.
Test [4] has as its system Enterobacterales. Kind of test: Antibacterial activity against Carbapenem-Resistant Enterobacterales 19 expressing blaNDM-1 clinical isolates assessed as meropenem MIC incubated for 16 to 18 hrs by broth microdilution method. It is filed as functional. Conditions: time 16-18 hrs. Background: In broth dilution the organism is exposed to a series of concentrations in liquid medium.

For test [5], the system named is Enterobacterales. Kind of test: Antibacterial activity against Carbapenem-Resistant Enterobacterales 19 expressing blaNDM-1 clinical isolates assessed as fold potentiation incubated for 16 to 18 hrs by broth microdilution method. It is filed as functional. Conditions: time 16-18 hrs.
A short description of test [6]: Inhibition of recombinant his tagged VIM-2 (unknown origin) expressed in Escherichia coli (DE3) cells using FC5 as substrate by microplate reader assay.
Test [7] concerns Escherichia coli. Kind of test: Antibacterial activity against Escherichia coli C1541 expressing blaVIM-2 clinical isolates assessed as meropenem MIC incubated for 16 to 18 hrs by broth microdilution method. Type of test: functional. To be noted: time 16-18 hrs.
The test system of a further test is Klebsiella pneumoniae. Description: Antibacterial activity against Klebsiella pneumoniae BAA2470 expressing blaNDM-1 clinical isolates assessed as meropenem MIC incubated for 16 to 18 hrs by broth microdilution method. To be noted: time 16-18 hrs. Type of test: functional.
Test [8] relates to Escherichia coli. Description: Antibacterial activity against Escherichia coli C1580 expressing blaIMP-1 clinical isolates assessed as meropenem MIC incubated for 16 to 18 hrs by broth microdilution method. To be noted: time 16-18 hrs. It is filed as functional.
Test [9] is described as follows: Inhibition of recombinant his tagged IMP1 (unknown origin) expressed in Escherichia coli (DE3) cells using FC5 as substrate by microplate reader assay.
Test [10] relates to Escherichia coli. Description: Antibacterial activity against Escherichia coli BAA2452 expressing blaNDM-1 clinical isolates assessed as meropenem MIC incubated for 16 to 18 hrs by broth microdilution method. It is filed as functional. To be noted: time 16-18 hrs.
Test [11] concerns Escherichia coli. Description: Antibacterial activity against Escherichia coli C1580 expressing blaIMP-1 clinical isolates assessed as fold potentiation incubated for 16 to 18 hrs by broth microdilution method. Type of test: functional. Conditions: time 16-18 hrs.
The nature of test [12]: Inhibition of recombinant VIM-1 (unknown origin) expressed in Escherichia coli (DE3) cells using FC5 as substrate by microplate reader assay.

What is called IC50 is the concentration that inhibits the measured activity by half. What is called MIC is the smallest concentration in the dilution series that meets the test's criterion for growth inhibition.

Consider `O=[N+]([O-])c1ccc(Cn2cc(-c3cccc(B(O)O)c3)nn2)cc1`, for which the half-inhibitory concentration (IC50) is 81.1 µM in test [1]; 48 µM in test [3]; 9.76 µM in test [6]; more than 100 µM in [9]; more than 100 µM in [12]. The “fold change (FC)” value in the test with Escherichia coli [2], in the test on Enterobacterales [5] and in the test on Escherichia coli [11] was 2 each time. For the same compound, the minimal inhibitory concentration (MIC) in the test on Enterobacterales [4] is 32 µg/mL; in the test on Escherichia coli [7], 64 µg/mL; with Klebsiella pneumoniae, more than 128 µg/mL; with Escherichia coli [8], 16 µg/mL; in the test on Escherichia coli [10], 64 µg/mL.
On to `NCCOc1ccc(-c2cn(-c3cccc(C(=O)O)c3C(=O)O)nn2)cc1`, for which the IC50 in test [1] is more than 100 µM; in test [3] it was more than 100 µM; in test [6], 3.69 µM; in test [9], 1.83 µM; in test [12] it was more than 100 µM. The “fold change (FC)” value was determined as 2 in the test with Escherichia coli [2], 1 with Enterobacterales [5] and 128 in the test with Escherichia coli [11]. In addition, the MIC was 64 µg/mL in the test on Enterobacterales [4]; 32 µg/mL with Escherichia coli [7]; more than 128 µg/mL in the test on Klebsiella pneumoniae; 0.25 µg/mL in the test on Escherichia coli [8]; 64 µg/mL with Escherichia coli [10].
Turning to `O=P(O)(O)Cc1ccccc1-n1cc(CNc2ccccc2)nn1`, the IC50 in [1] was 14.9 µM; in test [3], 82.8 µM; in [6], 4.16 µM; in test [9], more than 100 µM; in test [12] it was 46 µM.
`O=C(O)c1ccccc1-c1cn(-c2cccc(C(=O)O)c2C(=O)O)nn1`: the IC50 in test [1] is more than 100 µM; in test [3], more than 100 µM; in [6], more than 100 µM; in test [9], 13.9 µM; in test [12], 19.5 µM.
For `O=P(O)(O)Cc1ccc(-n2cc(-c3ccccc3)nn2)cc1`, the IC50 is 1.5 µM in [1]; more than 100 µM in [3]; 1.63 µM in test [6]; more than 100 µM in test [9]; 16 µM in test [12].
For the compound `NCc1cccc(-c2cn(-c3cccc(CP(=O)(O)O)c3)nn2)c1`, the concentration for half-maximal inhibition (IC50) was found to be 0.28 µM in test [1]; 42.5 µM in test [3]; 2.56 µM in [6]; 37.1 µM in test [9]; 7.75 µM in test [12].
Taken in the same sequence, the figures for `Cc1cccc(-c2cn(-c3cccc(C(=O)O)c3C(=O)O)nn2)c1` were 28.8 µM, more than 100 µM, 19.8 µM, 1.83 µM and more than 100 µM.
On the same counts, the results for `O=C(O)c1cccc(-n2cc(CNc3ccccc3)nn2)c1C(=O)O` are 72 µM, more than 100 µM, 53.2 µM, 3.53 µM and 37.8 µM.
As to `O=C(O)c1cccc(-n2cc(-c3ccccc3)nn2)c1C(=O)O`, the concentration for half-maximal inhibition (IC50) in test [1] is more than 100 µM; in test [3], more than 100 µM; in test [6], 13.3 µM; in [9], 8.23 µM; in test [12] it was more than 100 µM.
As for `NCc1cn(-c2ccccc2CP(=O)(O)O)nn1`, the concentration for half-maximal inhibition (IC50) in test [1], in [3], in test [6], in test [9] and in test [12] was more than 100 µM each time.
Take `O=P(O)(O)Cc1cccc(-n2cc(-c3ccccc3)nn2)c1`: the IC50 amounted to 0.05 µM in [1]; 27.8 µM in test [3]; 0.65 µM in test [6]; 5.98 µM in test [9]; 3.65 µM in test [12].
Regarding `Cc1ccc(-c2cn(-c3cccc(CP(=O)(O)O)c3)nn2)cc1`, the IC50 in test [1] came out at 0.045 µM; in test [3] it was 24.6 µM; in test [6], 0.77 µM; in test [9], 4.4 µM; in [12] it was 5.48 µM.
As to `OCCn1cc(-c2cccc(B(O)O)c2)nn1`, the 50% inhibitory concentration (IC50) in [1], in test [3], in test [6], in [9] and in [12] was more than 100 µM each time.
Consider `O=P(O)(O)Cc1ccccc1-n1cc(-c2ccccc2)nn1`, for which the half-inhibitory concentration (IC50) is 1.63 µM in test [1]; more than 100 µM in [3]; 1.48 µM in test [6]; more than 100 µM in test [9]; 10 µM in test [12].
With `O=P(O)(O)Cc1cccc(-n2cc(-c3cccc(Br)c3)nn2)c1`, the IC50 in test [1] was 0.016 µM; in test [3], 24.2 µM; in [6] it was 0.66 µM; in test [9] it was 11.3 µM; in test [12], 4.97 µM.
On to `Nc1ccccc1-c1cn(-c2ccc(CP(=O)(O)O)cc2)nn1`, for which the IC50 was 2.28 µM in [1]; 16.6 µM in test [3]; 2.48 µM in test [6]; more than 100 µM in [9]; 22.1 µM in [12].
Taken in the same sequence, the figures for `NCc1cn(-c2cccc(C(=O)O)c2C(=O)O)nn1` were more than 100 µM, more than 100 µM, more than 100 µM, 81.5 µM and more than 100 µM.
Take `Nc1ccccc1-c1cn(-c2cccc(C(=O)O)c2C(=O)O)nn1`: the 50% inhibitory concentration (IC50) in [1] was 61.7 µM; in [3] it was more than 100 µM; in [6], 37.6 µM; in [9], 6.43 µM; in [12] it was more than 100 µM.
Turning to `Nc1cccc(-c2cn(-c3cccc(C(=O)O)c3C(=O)O)nn2)c1`, the half-maximal inhibitory concentration (IC50) was more than 100 µM in test [1]; more than 100 µM in test [3]; 11.7 µM in test [6]; 1.17 µM in test [9]; 14.5 µM in [12].
Regarding `O=C(O)c1cccc(-n2cc(Cc3ccccc3)nn2)c1C(=O)O`, the concentration for half-maximal inhibition (IC50) in [1] is 87.1 µM; in test [3] it was more than 100 µM; in [6], more than 100 µM; in [9], 9.02 µM; in test [12] it was 71 µM.
On to `O=C(CCn1cc(-c2cccc(B(O)O)c2)nn1)Nc1cccc(Cl)c1`, for which the concentration for half-maximal inhibition (IC50) in [1] was 48.7 µM; in test [3], 68.2 µM; in test [6], 30.5 µM; in test [9], more than 100 µM; in test [12], more than 100 µM.
Turning to `CC(C)(C)OC(=O)NCCn1cc(-c2cccc(B(O)O)c2)nn1`, the half-inhibitory concentration (IC50) in [1] is more than 100 µM; in test [3], more than 100 µM; in test [6] it was 52.4 µM; in test [9], more than 100 µM; in [12], more than 100 µM.
Turning to `O=C(O)c1cccc(-n2cc(-c3ccccc3)nn2)c1O`, the concentration for half-maximal inhibition (IC50) is 59.9 µM in test [1]; more than 100 µM in test [3]; more than 100 µM in test [6]; more than 100 µM in [9]; 61.9 µM in test [12].
As for `O=C(O)c1ccc(-n2cc(-c3ccccc3)nn2)cc1C(=O)O`, the IC50 is 60.4 µM in test [1]; more than 100 µM in test [3]; 94.6 µM in [6]; 46.2 µM in test [9]; more than 100 µM in test [12].
With `Cc1cccc(-c2cn(-c3ccc(CP(=O)(O)O)cc3)nn2)c1`, the IC50 in test [1] was 1.16 µM; in test [3] it was 65.5 µM; in [6], 2.03 µM; in test [9] it was more than 100 µM; in [12] it was 11.8 µM.
